Measurements taken from patent US10633419B2, “Immunomodulators” (BRISTOL-MYERS SQUIBB COMPANY, priority 2014, dated 2020).
Starred links: 1 amine or outer side, 2 acyl side, 3 side chain; linkers in the order of their positions; H or OH if unused. Positions of bridges follow the written chain, without caps; N, C: chain ends. Non-standard residues stand in square brackets, D forms with d. Residues, ends and D or L forms follow the SMILES beside them. Groups on a side chain read outwards from the residue. *: point of attachment. X6 = O=C(O)CCCCCCCCCCCCCCCCC(=O)N[C@@H](CCC(=O)NCCCOCCOCCOCCCN*)C(=O)O; X13 = O=C(O)CCCCCCCCCCCCCCC(=O)N[C@@H](CCC(=O)NCCCOCCOCCOCCCN*)C(=O)O; Trp(1-CH2COOH) = N[C@@H](Cc1cn(CC(=O)O)c2ccccc12)C(=O)O; X23 = O=C(CCCCOCCOCCOCCCN[*:3])C[C@H](N[*:1])C(=O)[*:2]; X14 = O=C(O)CCCCCCCCCCNC(=O)CCC(=O)NCCCOCCOCCOCCCN*; C16 diacid = O=C(O)CCCCCCCCCCCCCCC(=O)*; γGlu = O=C(O)[C@H](CCC(=O)[*:2])N[*:1]; d(cisHyp) = O=C(O)[C@H]1C[C@@H](O)CN1; NH(CH2)12COOH = O=C(O)CCCCCCCCCCCCN*; Hyp = O=C(O)[C@@H]1C[C@@H](O)CN1; NMeNle = CCCC[C@H](NC)C(=O)O; NMeA = CN[C@@H](C)C(=O)O; Pra = C#CC[C@H](N)C(=O)O; Aun = NCCCCCCCCCCC(=O)O; Dab = NCC[C@H](N)C(=O)O; Dap = NC[C@H](N)C(=O)O

target: T1, PD-L1 (Homo sapiens, UniProt Q9NZQ7); experiment: PD-1/PD-L1 Homogenous Time-Resolved Fluorescence (HTRF) binding assay (PD-1-Ig/PD-L1-His); conditions: inhibition of PD-1-Ig binding to PD-L1-TVMV-His; value given as number; read-out: HTRF IC50
T1 construct: hPDL1(19-239)-TVMV-His; made in house; host or cells: HEK293T
Method in brief: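 HTRF competition in dPBS with 0.1% BSA and 0.05% Tween-20: 20 nM PD-1-Ig added after 15 min compound pre-incubation with 10 nM PD-L1-His, then another 15 min. Signal (665/620 nm) after 30 min with APC anti-His (20 nM) and Eu anti-Ig (1 nM).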

T1 sequence (Q9NZQ7 with tags, fused parts or gaps): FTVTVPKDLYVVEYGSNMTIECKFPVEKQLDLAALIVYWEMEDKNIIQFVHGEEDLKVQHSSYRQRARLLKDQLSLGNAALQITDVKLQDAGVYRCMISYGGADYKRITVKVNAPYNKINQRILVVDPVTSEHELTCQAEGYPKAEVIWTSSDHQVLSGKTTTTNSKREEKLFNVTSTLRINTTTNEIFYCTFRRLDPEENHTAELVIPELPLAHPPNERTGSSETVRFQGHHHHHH

Structure (SMILES) | IC50 [nM]
CCCC[C@H]1C(=O)N(C)[C@@H](CCCC)C(=O)N[C@@H](CC(C)C)C(=O)N[C@H](C(=O)NCC(=O)N[C@@H](Cc2cn(CC[C@H](NC(=O)CCCCCCCCCCCCCCCCC(=O)O)C(=O)O)nn2)C(=O)O)CSCC(=O)N[C@@H](Cc2ccc(O)cc2)C(=O)N2CCCC[C@H]2C(=O)N[C@@H](CC(N)=O)C(=O)N2CCC[C@H]2C(=O)N[C@@H](CN)C(=O)N[C@@H](CC(C)C)C(=O)N2C[C@H](O)C[C@H]2C(=O)N[C@@H](Cc2c[nH]c3ccccc23)C(=O)N[C@@H](CCN)C(=O)N[C@@H](Cc2cn(CC(=O)O)c3ccccc23)C(=O)N1C [Example 13132] | 3.3

same assay, conditions: inhibition of PD-1-Ig binding to PD-L1-TVMV-His; value given as range class; read-out: HTRF IC50

Structure (SMILES) | IC50 [nM]
CCCC[C@H]1C(=O)N(C)[C@@H](CCCC)C(=O)N[C@@H](CC(C)C)C(=O)N[C@H](C(=O)NCC(=O)N[C@@H](CC(=O)O)C(=O)N[C@@H](CC(=O)NCCCOCCOCCOCCCNC(=O)CC[C@H](NC(=O)CCCCCCCCCCCCCCCCC(=O)O)C(=O)O)C(=O)O)CSCC(=O)N[C@@H](Cc2ccc(O)cc2)C(=O)N(C)[C@@H](C)C(=O)N[C@@H](CC(N)=O)C(=O)N2CCC[C@H]2C(=O)N[C@@H](CN)C(=O)N[C@@H](CC(C)C)C(=O)N2C[C@H](O)C[C@H]2C(=O)N[C@@H](Cc2c[nH]c3ccccc23)C(=O)N[C@@H](CCN)C(=O)N[C@@H](Cc2cn(CC(=O)O)c3ccccc23)C(=O)N1C [Example 11225] ({CH2CO}-Y[NMeA]NP[Dap]L[Hyp]W[Dab][Trp(1-CH2COOH)][NMeNle][NMeNle]LCGDD(X6)-OH; thioether N-14) | 0.3 to 9.9
CCCC[C@H]1C(=O)N(C)[C@@H](CCCC)C(=O)N[C@@H](CCCNC(=N)N)C(=O)N[C@H](C(=O)NCC(=O)NCC(=O)N[C@@H](CC(=O)O)C(=O)N[C@@H](CCCCNC(=O)CCCCCCCCCCCCCCC(=O)O)C(N)=O)CSCC(=O)N[C@@H](Cc2ccc(O)cc2)C(=O)N(C)[C@@H](C)C(=O)N[C@@H](CC(=O)O)C(=O)N2CCC[C@H]2C(=O)N[C@@H](Cc2cnc[nH]2)C(=O)N[C@@H](CC(C)C)C(=O)N2C[C@H](O)C[C@H]2C(=O)N[C@@H](Cc2c[nH]c3ccccc23)C(=O)N[C@@H](CO)C(=O)N[C@@H](Cc2c[nH]c3ccccc23)C(=O)N1C [Example 11126] ({CH2CO}-Y[NMeA]DPHL[Hyp]WSW[NMeNle][NMeNle]RCGGDK(C16 diacid)-NH2; thioether N-14) | 10 to 99
CCCC[C@H]1C(=O)N(C)[C@@H](CCCC)C(=O)N[C@@H](CC(C)C)C(=O)N[C@H](C(=O)NCC(=O)N[C@@H](Cc2cn(CC[C@H](NC(=O)CCCCCCCCCCCCCCCCC(=O)O)C(=O)O)nn2)C(=O)O)CSCC(=O)N[C@@H](Cc2ccc(O)cc2)C(=O)N2CCCC[C@H]2C(=O)N[C@@H](CC(N)=O)C(=O)N2CCC[C@H]2C(=O)N[C@@H](CNC)C(=O)N[C@@H](CC(C)C)C(=O)N2C[C@H](O)C[C@H]2C(=O)N[C@@H](Cc2c[nH]c3ccccc23)C(=O)N[C@@H](CCN)C(=O)N[C@@H](Cc2cn(CC(=O)O)c3ccccc23)C(=O)N1C [Example 13133] | 0.3 to 9.9
CCCC[C@H]1C(=O)N(C)[C@@H](CCCC)C(=O)N[C@@H](CC(C)C)C(=O)N[C@H](C(=O)NCCCCCCCCCCC(=O)N[C@@H](CC(=O)O)C(=O)O)CSCC(=O)N[C@@H](Cc2ccc(O)cc2)C(=O)N(C)[C@@H](C)C(=O)N[C@@H](CC(N)=O)C(=O)N2CCC[C@H]2C(=O)N[C@@H](Cc2cnc[nH]2)C(=O)N[C@@H](CCC(=O)O)C(=O)N2C[C@H](O)C[C@H]2C(=O)N[C@@H](Cc2c[nH]c3ccccc23)C(=O)N[C@@H](CCN)C(=O)N[C@@H](Cc2c[nH]c3ccccc23)C(=O)N1C [Example 11129] ({CH2CO}-Y[NMeA]NPHE[Hyp]W[Dab]W[NMeNle][NMeNle]LC[Aun]D-OH; thioether N-14) | 10 to 99
CCCC[C@H]1C(=O)N2CCC[C@@H]2C(=O)N[C@@H](CC(=O)O)C(=O)N[C@@H](C(C)C)C(=O)N(C)[C@@H](Cc2ccccc2)C(=O)N[C@@H](CCCN)C(=O)N2CCC[C@@H]2C(=O)N[C@@H](Cc2c[nH]c3ccccc23)C(=O)N[C@@H](Cc2ccc(O)cc2)C(=O)N[C@@H](CC(C)C)C(=O)N[C@H](C(=O)NCC(=O)N[C@@H](Cc2cn(CC[C@H](NC(=O)CCCCCCCCCCCCCCC(=O)O)C(=O)O)nn2)C(N)=O)CSCC(=O)N[C@@H](Cc2cc(F)c(F)c(F)c2)C(=O)N(C)[C@@H](Cc2ccccc2)C(=O)N1C [Example 14073] | 10 to 99
CCCC[C@H]1C(=O)N(C)[C@@H](CCCC)C(=O)N[C@@H](CC(C)C)C(=O)N[C@H](C(=O)NCCCOCCOCCOCCCNC(=O)CCC(=O)NCCCCCCCCCCC(=O)O)CSCC(=O)N[C@@H](Cc2ccc(O)cc2)C(=O)N(C)[C@@H](C)C(=O)N[C@@H](CCC(=O)O)C(=O)N2CCC[C@H]2C(=O)N[C@@H](Cc2cnc[nH]2)C(=O)N[C@@H](CCCCN)C(=O)N2C[C@H](O)C[C@H]2C(=O)N[C@@H](Cc2c[nH]c3ccccc23)C(=O)N[C@@H](CCCCN)C(=O)N[C@@H](Cc2cn(CC(=O)O)c3ccccc23)C(=O)N1C [Example 11139] ({CH2CO}-Y[NMeA]EPHK[Hyp]WK[Trp(1-CH2COOH)][NMeNle][NMeNle]LC-X14; thioether N-14) | 10 to 99
CCCC[C@H]1C(=O)N(C)[C@@H](CCCC)C(=O)N[C@@H](CCCNC(=N)N)C(=O)N[C@H](C(=O)NCC(=O)NCC(=O)N[C@@H](CC(=O)O)C(=O)NCCCCCCCCCCC(=O)O)CSCC(=O)N[C@@H](Cc2ccc(O)cc2)C(=O)N(C)[C@@H](C)C(=O)N[C@@H](CC(=O)O)C(=O)N2CCC[C@H]2C(=O)N[C@@H](Cc2cnc[nH]2)C(=O)N[C@@H](CC(C)C)C(=O)N2C[C@H](O)C[C@H]2C(=O)N[C@@H](Cc2c[nH]c3ccccc23)C(=O)N[C@@H](CO)C(=O)N[C@@H](Cc2c[nH]c3ccccc23)C(=O)N1C [Example 11069] ({CH2CO}-Y[NMeA]DPHL[Hyp]WSW[NMeNle][NMeNle]RCGGD[Aun]-OH; thioether N-14) | 10 to 99
C#CC[C@H](NC(=O)CNC(=O)CNC(=O)[C@@H]1CSCC(=O)N[C@@H](Cc2ccc(O)cc2)C(=O)N(C)[C@@H](C)C(=O)N[C@@H](CC(N)=O)C(=O)N2CCC[C@H]2C(=O)N[C@@H](CN)C(=O)N[C@@H](CC(C)C)C(=O)N2C[C@H](O)C[C@H]2C(=O)N[C@@H](Cc2c[nH]c3ccccc23)C(=O)N[C@@H](CCN)C(=O)N[C@@H](Cc2cn(CC(=O)O)c3ccccc23)C(=O)N(C)[C@@H](CCCC)C(=O)N(C)[C@@H](CCCC)C(=O)N[C@@H](CC(C)C)C(=O)N1)C(=O)O [INT130AA] ({CH2CO}-Y[NMeA]NP[Dap]L[Hyp]W[Dab][Trp(1-CH2COOH)][NMeNle][NMeNle]LCGG[Pra]-OH; thioether N-14) | 10 to 99

Results, then the compound that gave them:

IC50 [nM] | Structure (SMILES)
10 to 99 | CCCC[C@H]1C(=O)N(C)[C@@H](CCCC)C(=O)N[C@@H](CC(C)C)C(=O)N[C@H](C(=O)NCC(=O)N[C@@H](CC(=O)O)C(=O)N[C@@H](CC(=O)O)C(=O)NCCCCCCCCCCCCC(=O)O)CSCC(=O)N[C@@H](Cc2ccc(O)cc2)C(=O)N(C)[C@@H](C)C(=O)N[C@@H](CC(N)=O)C(=O)N2CCC[C@H]2C(=O)N[C@@H](CN)C(=O)N[C@@H](CC(C)C)C(=O)N2C[C@H](O)C[C@H]2C(=O)N[C@@H](Cc2c[nH]c3ccccc23)C(=O)N[C@@H](CCN)C(=O)N[C@@H](Cc2cn(CC(=O)O)c3ccccc23)C(=O)N1C [Example 11217] ({CH2CO}-Y[NMeA]NP[Dap]L[Hyp]W[Dab][Trp(1-CH2COOH)][NMeNle][NMeNle]LCGDD-{NH(CH2)12COOH}; thioether N-14)
10 to 99 | CCCC[C@H]1C(=O)N(C)[C@@H](CCCC)C(=O)N[C@@H](CC(C)C)C(=O)N[C@H](C(=O)NCC(=O)N[C@H](CC(=O)O)C(=O)NCC(=O)NCCCCCCCCCCC(=O)O)CSCC(=O)N[C@@H](Cc2ccc(O)cc2)C(=O)N(C)[C@@H](C)C(=O)N[C@@H](CC(N)=O)C(=O)N2CCC[C@H]2C(=O)N[C@@H](CN)C(=O)N[C@@H](CC(C)C)C(=O)N2C[C@H](O)C[C@H]2C(=O)N[C@@H](Cc2c[nH]c3ccccc23)C(=O)N[C@@H](CCN)C(=O)N[C@@H](Cc2cn(CC(=O)O)c3ccccc23)C(=O)N1C [Example 11100] ({CH2CO}-Y[NMeA]NP[Dap]L[Hyp]W[Dab][Trp(1-CH2COOH)][NMeNle][NMeNle]LCG[dD]G[Aun]-OH; thioether N-14)
10 to 99 | CCCC[C@H]1C(=O)N(C)[C@@H](CCCC)C(=O)N[C@@H](CC(C)C)C(=O)N[C@H](C(=O)NCC(=O)N[C@@H](CC(=O)CCCCOCCOCCOCCCNC(=O)CC[C@H](NC(=O)CCCCCCCCCCCCCCC(=O)O)C(=O)O)C(=O)O)CSCC(=O)N[C@@H](Cc2ccc(O)cc2)C(=O)N(C)[C@@H](C)C(=O)N[C@@H](CC(N)=O)C(=O)N2CCC[C@H]2C(=O)N[C@@H](CN)C(=O)N[C@@H](CC(C)C)C(=O)N2C[C@H](O)C[C@@H]2C(=O)N[C@@H](Cc2c[nH]c3ccccc23)C(=O)N[C@@H](CCN)C(=O)N[C@@H](Cc2cn(CC(=O)O)c3ccccc23)C(=O)N1C [Example 11158] ({CH2CO}-Y[NMeA]NP[Dap]L[d(cisHyp)]W[Dab][Trp(1-CH2COOH)][NMeNle][NMeNle]LCG[X23]([γGlu-C16 diacid])-OH; thioether N-14)
100 to 1600 | CCCC[C@H]1C(=O)N(C)[C@@H](CCCC)C(=O)N[C@@H](CC(C)C)C(=O)N[C@H](C(=O)NCCCOCCOCCOCCCNC(=O)CC[C@H](NC(=O)CCCCCCCCCCCCCCC(=O)O)C(=O)O)CSCC(=O)N[C@@H](Cc2ccc(O)cc2)C(=O)N(C)[C@@H](C)C(=O)N[C@@H](CC(N)=O)C(=O)N2CCC[C@H]2C(=O)N[C@@H](CN)C(=O)N[C@@H](CC(C)C)C(=O)N2C[C@H](O)C[C@@H]2C(=O)N[C@@H](Cc2c[nH]c3ccccc23)C(=O)N[C@@H](CCN)C(=O)N[C@@H](Cc2cn(CC(=O)O)c3ccccc23)C(=O)N1C [Example 11161] ({CH2CO}-Y[NMeA]NP[Dap]L[d(cisHyp)]W[Dab][Trp(1-CH2COOH)][NMeNle][NMeNle]LC-X13; thioether N-14)
